Patent US9856212B1, “Biphenyl compounds and applications thereof” (Shenyang Sinochem Agrochemicals R&D Co., Ltd., priority 2017, dated 2018)

How the values were obtained:
Type in all cases: in vivo
[1] = tested on: adult spider mites (Tetranychuscinnabarinus); assay: Test against adult spider mite, greenhouse spray on bean leaves; conditions: after 72 h
Procedure: The adult spider mites (Tetranychuscinnabarinus) were put into two true leaves of bean plants. After the number of mites were investigated, the solution of certain concentrations of test compounds was sprayed by using a sprinkler. Three replicates were set for each treatment. Then the leaves were maintained in standard observation room. After 72 h the survival mites in each leaf were observed, and mortality of the mites was determined.

[2] = tested on: deutonymph of spider mite (Tetranychuscinnabarinus); assay: Test against deutonymph of spider mite, greenhouse spray; conditions: after 72 h
Procedure: Ten healthy female adult spider mites (Tetranychuscinnabarinus) were put into two true leaves of bean plants. The adult spider mites were removed after 24 h and the eggs were to be continued incubating. After ten days, the number of deutonymph were investigated and recorded. The solution of certain concentrations of test compounds was sprayed by using a sprinkler. Three replicates were set for each treatment. Then the deutonymph of spider mites were maintained in standard observation room. After 72 h, the survival mites in each leaf were observed, and mortality of the mites was determined.

[3] = tested on: citrus red mite (Panonychuscitri); assay: Field trial against citrus red mite (Jiangxi, China); conditions: orange orchard
Procedure: The trial was carried out in a 2-year-old Shatang orange orchard in Ganzhou city Jiangxi province, trifoliate orange trees were selected as stocks, the intervals between two plants was 1.50×2.50 m, the average height was 1.45 m and the crown width was 1.30 m. Two trees were selected in each plot, with random arrangement and 4 replications. Compound 1 (10% SC) was set at three different doses (100 mg/L, 50 mg/L and 25 mg/L), spirodiclofen (29% SC) was set at one dose (50 mg/L), and pyridaben (20% EC) was set at one dose (100 mg/L). MatabiSupergreen 16 Knapsack Sprayer 16 Liter was used to spray evenly with 2 L of spraying volume for each plant. The plants were treated once in May at that time, adults, nymphs, eggs of citrus red mite all existed, with adults/eggs=1/1.2. During the day the plants were treated, and the weather was good with the average temperature at 24° C. The first three days after treatment were all clear days. The number of mites was investigated before treatment and on the 1st, 3rd, 7th, 14th, 22nd and 28th day after treatment respectively. Two trees of each plot were investigated according to the five directions of the tree crown (east, south, west, north and central), 5 leaves in each direction were investigated to calculate the number of living mites, with 50 leaves each plot. The decline rate of mite population and corrected efficacy were calculated according to formulas below: The decline rate of mite population (%)=[(the average number of mite on each leaf before treatment−the average number of mite on each leaf after treatment)/the average number of mite on each leaf before treatment]×100. Corrected efficacy (%)=[(the decline rate of mite population in treated area−the decline rate of mite population in untreated area)/(100−the decline rate of mite population in untreated area)]×100.

[4] = tested on: egg of spider mite (Tetranychuscinnabarinus); assay: Test against egg of spider mite, greenhouse spray; conditions: eggs, 5 days
Procedure: Two true leaves of bean plants were taken and one true leaf was removed. Then ten healthy female adult spider mites were put into the true leaf. The adult spider mites were removed after 24 h and the eggs were investigated. The solution of certain concentrations of test compounds was sprayed by using a sprinkler. Three replicates were set for each treatment. The untreated eggs were all incubated after 5 days. The unincubation of treated eggs in leaf was observed, and incubation inhibition rate of the eggs was determined.

spider mites = assay: Test of systemic activity against spider mite through root absorption; conditions: root absorption 24 h, mites on bean leaves, after 72 h
Procedure: The high acaricidal compound 1 were dissolved in acetone, and then diluted with 0.1% aqueous solution of Tween 80 to form test solution in different concentration. Three replicates were set for each treatment. Water is blank control. The 10 ml compound 1 solution was added into the tube. Two true leaves bean plants were taken and the soil in the root was removed. The bean plant was dipped into the test solution in different concentration. After absorbing 24 h, 30 to 50 spider mites were put onto the true leaves. Then the bean plants were maintained in observation room at 25±1° C. After 72 h, the death and survival mites in each leaf was observed, the mortality of the mites and systemic activity was determined.

[5] = 100 mg/L, the 1st day after treatment
[6] = 100 mg/L, the 3rd day after treatment
[7] = 100 mg/L, the 7th day after treatment
[8] = 100 mg/L, the 14th day after treatment
[9] = 100 mg/L, the 22nd day after treatment
[10] = 100 mg/L, the 28th day after treatment
[11] = 50 mg/L, the 1st day after treatment
[12] = 50 mg/L, the 3rd day after treatment
[13] = 50 mg/L, the 7th day after treatment
[14] = 50 mg/L, the 14th day after treatment
[15] = 50 mg/L, the 22nd day after treatment
[16] = 50 mg/L, the 28th day after treatment

Cc1cc(F)c(-c2cc([S+]([O-])CC(F)(F)F)c(C)cc2F)cc1SCC(F)(F)F (centres unmarked) [Compound 2]
Mortality (%) ([1]; 100 mg/L): 100%

CC(C)(C)c1ccc(CSc2cnn(C(C)(C)C)c(=O)c2Cl)cc1 [pyridaben, reference compound]
Mortality (%) ([2]; 0.25 mg/L): 25% | Mortality (%) ([2]; 0.5 mg/L): 60% | Mortality (%) ([2]; 1 mg/L): 84% | Corrected efficacy (%) [3, 5]: 0% | Corrected efficacy (%) [3, 6]: 65% | Corrected efficacy (%) [3, 7]: 90% | Corrected efficacy (%) [3, 8]: 93% | Corrected efficacy (%) [3, 9]: 92% | Corrected efficacy (%) [3, 10]: 95%

Cc1cc(F)c(-c2cc([S+]([O-])CC(F)(F)F)c(C)cc2F)cc1[S+]([O-])CC(F)(F)F (centres unmarked) [Compound 3]
Mortality (%) ([1]; 100 mg/L): 100%

Cc1cc(F)c(-c2cc(SCC(F)F)c(C)cc2F)cc1SCC(F)F [Compound 62]
Mortality (%) ([1]; 100 mg/L): 100%

Cc1cc(F)c(-c2cc([S+]([O-])CC(F)F)c(C)cc2F)cc1SCC(F)F (centres unmarked) [Compound 63]
Mortality (%) ([1]; 100 mg/L): 100%

Cc1cc(F)c(-c2cc(SCC(F)(F)F)c(C)cc2F)cc1SCC(F)(F)F [Compound 1]
Mortality (%) ([1]; 5 mg/L): 100% | Mortality (%) ([1]; 100 mg/L): 100% | Mortality (%) ([2]; 0.25 mg/L): 64% | Mortality (%) ([2]; 0.5 mg/L): 97% | Mortality (%) ([2]; 1 mg/L): 100% | Corrected efficacy (%) ([3]; 25 mg/L, the 1st day after treatment): 9% | Corrected efficacy (%) ([3]; 25 mg/L, the 3rd day after treatment): 53% | Corrected efficacy (%) ([3]; 25 mg/L, the 7th day after treatment): 74% | Corrected efficacy (%) ([3]; 25 mg/L, the 14th day after treatment): 77% | Corrected efficacy (%) ([3]; 25 mg/L, the 22nd day after treatment): 75% | Corrected efficacy (%) ([3]; 25 mg/L, the 28th day after treatment): 73% | Corrected efficacy (%) [3, 11]: 18% | Corrected efficacy (%) [3, 12]: 87% | Corrected efficacy (%) [3, 13]: 92% | Corrected efficacy (%) [3, 14]: 91% | Corrected efficacy (%) [3, 15]: 92% | Corrected efficacy (%) [3, 16]: 92% | Corrected efficacy (%) [3, 5]: 25% | Corrected efficacy (%) [3, 6]: 89% | Corrected efficacy (%) [3, 7]: 97% | Corrected efficacy (%) [3, 8]: 99% | Corrected efficacy (%) [3, 9]: 99% | Corrected efficacy (%) [3, 10]: 98% | Incubation inhibition rate (%) ([4]; 0.25 mg/L): 18% | Incubation inhibition rate (%) ([4]; 1 mg/L): 34% | Incubation inhibition rate (%) ([4]; 5 mg/L): 100% | Mortality (%) (spider mites; 50 mg/L): 80% | Mortality (%) (spider mites; 200 mg/L): 88%

CCC(C)(C)C(=O)OC1=C(c2ccc(Cl)cc2Cl)C(=O)OC12CCCCC2 [spirodiclofen, reference compound]
Corrected efficacy (%) [3, 11]: 20% | Corrected efficacy (%) [3, 12]: 48% | Corrected efficacy (%) [3, 13]: 63% | Corrected efficacy (%) [3, 14]: 80% | Corrected efficacy (%) [3, 15]: 71% | Corrected efficacy (%) [3, 16]: 70% | Incubation inhibition rate (%) ([4]; 0.25 mg/L): 13% | Incubation inhibition rate (%) ([4]; 1 mg/L): 37% | Incubation inhibition rate (%) ([4]; 5 mg/L): 100%
